US9526728B2, “Medical use of a DPP-4 inhibitor” (Boehringer Ingelheim International GmbH, priority 2014, dated 2016)

Legend:
[1] = system: subtotally nephrectomized (SNx) rats; assay: Renal function (blood pressure, urine protein excretion, GFR); assay type: in vivo, rat; settings: seven weeks treatment; for GFR: FITC-inulin clearance
From the text: (§1) Briefly, animals were anesthetized with 2.5% inhaled isoflurane, the right kidney was removed via subcapsular nephrectomy and infarction of approximately two thirds of the left kidney was achieved via selective ligation of two out of the three or four branches of the left renal artery. Sham surgery consisted of laparotomy and manipulation of both kidneys before wound closure. Rats were followed for eight weeks after surgery. […] All rats were housed in a stable environment and allowed free access to Reverse Osmosis water and standard rat chow.
For estimation of urine protein excretion, rats were individually housed in metabolic cages for 24 h with free access to tap water and standard diet. Urine protein was measured with the benzethonium chloride method. Urinary excretion of markers of renal injury was determined using Rat KidneyMAP v1.0 (Myriad RBM, Austin, Tex.) and expressed as the ratio to urine creatinine determined by autoanalyzer. Glomerular filtration rate (GFR) was determined by FITC-inulin clearance, as previously described.

[2] = CKD population; need for dose adjustment; cited from earlier work
[3] = system: subtotally nephrectomized (SNx) rats; assay: Cardiac catheterization, pressure volume loops (cardiac function); assay type: in vivo, rat; settings: in comparison to vehicle-treated SNx rats, linagliptin 1.5 mg/kg/day or sitagliptin 20 mg/kg/day, seven weeks
From the text: as §1
Cardiac catheterization was performed as previously published. Briefly, rats were anesthetized (2% isoflurane), placed on a warming pad (37 °C), intubated and ventilated using positive pressure. The right internal carotid artery was ligated cranially and a 2F miniaturized combined conductance catheter-micromanometer (Model SPR-838, Millar Instruments, Houston, Tex.) was inserted into the carotid artery and advanced into the left ventricle until stable pressure volume (PV) loops were obtained. […] All PV loops were obtained with the ventilator turned off for 5-10 seconds and the animal apneic. […] A range of functional parameters were then calculated using the pressure conductance data (Millar analysis software PVAN 3.4).

[4] = Metabolic parameters (HbA1c, active GLP-1); assay type: in vivo, rat; settings: seven weeks; for plasma active GLP-1 levels: both sham and SNx rats, linagliptin 1.5 mg/kg/day or sitagliptin 20 mg/kg/day; for HbA1c: sham and SNx rats, linagliptin 1.5 mg/kg/day or sitagliptin 20 mg/kg/day oral gavage
From the text: as §1
Blood glucose was measured with Accu-check Advantage (Roche, Mississauga, Ontario). HbA1c was measured using A1cNow+ (Bayer, Sunnyvale, Calif.). Active GLP-1 was determined using active GLP-1 (v2) kit (Meso Scale Discovery, Rockville, Md.).
Sham and SNx rats treated with vehicle, linagliptin and sitagliptin. Heart weights and kidney weights were increased in SNx rats relative to sham. HbA1c was unchanged in all treatment groups.

[5] = system: sham and subtotally nephrectomized (SNx) rats; assay: Renal structure (glomerulosclerosis index, JG-12 and collagen IV immunohistochemistry); assay type: in vivo, rat; settings: either sham or SNx rats; seven weeks treatment
From the text: as §1
A minimum of 50 glomeruli were examined in PAS-stained kidney sections from each rat. […] Glomerulosclerosis was defined as basement membrane thickening, mesangial hypertrophy and capillary occlusion. A glomerulosclerosis index (GSI) was then calculated using the formula:
[formula] Where Fi is the percentage of glomeruli in the rat kidney with a given score (i).
Immunohistochemistry for glomerular capillary density and tubulointerstitial collagen IV Immunohistochemistry of kidney tissue was performed as previously described with antibodies in the following concentrations: JG-12 1:1000 (Bender Medsystems GbdH, Vienna, Austria) and collagen IV 1:100 (Southern Biotech). Kidney sections were scanned with the Aperio ScanScope system and analysed with ImageScope, as already described. Glomerular endothelial (JG-12) immunostaining was determined in 30 glomerular profiles from each rat kidney section. For estimation of tubulointerstitial collagen IV, the proportional area of positive immunostaining (excluding glomeruli) was determined in 10 randomly selected cortical fields (×100 magnification).

[6] = system: subtotally nephrectomized (SNx) rats; assay: Immunohistochemistry for cardiac collagen I; assay type: in vivo, rat; settings: SNx rats vs vehicle-treated SNx; seven weeks treatment
From the text: as §1
Immunohistochemistry for fibrillar collagen type I (Southern Biotech, Birmingham, Ala.) was performed as previously described with the antibody used at a concentration of 1:400. Stained heart sections were scanned with the Aperio ScanScope system (Aperio, Vista, Calif.) and analysed with ImageScope (Aperio). Interstitial collagen I was determined as the proportional area of positive immunostaining in 10 randomly selected fields (×100 magnification).

[7] = system: subtotally nephrectomized (SNx) rats; assay: Cardiac gene expression (real time PCR); assay type: in vivo, rat; settings: SNx rats vs vehicle-treated SNx; seven weeks treatment
From the text: Briefly, animals were anesthetized with 2.5% inhaled isoflurane, the right kidney was removed via subcapsular nephrectomy and infarction of approximately two thirds of the left kidney was achieved via selective ligation of two out of the three or four branches of the left renal artery. Sham surgery consisted of laparotomy and manipulation of both kidneys before wound closure. Rats were followed for eight weeks after surgery. […] All rats were housed in a stable environment and allowed free access to Reverse Osmosis water and standard rat chow. RNA was isolated from homogenized rat heart tissue using TRIzol reagent (Life Technologies, Grand Island, N.Y.). Total RNA (4 μg) was treated with RQ1 DNase (1U/μl) (Promega, Madison, Wis.). DNase treated RNA (4 μg) was reverse-transcribed in a final volume of 25 μl using 0.5 μl AMV-RT (Roche Diagnostics, Laval, Quebec) in the manufacturer's buffer containing 1 mmol/L dNTPs, 0.5 μl RNase inhibitor (Roche) and 2 μg random hexamers (GE Healthcare Life Sciences, Baie d'Urfe, Quebec). […]

[8] = system: subtotally nephrectomized (SNx) rats; assay: Myocyte hypertrophy (H&E stained sections); assay type: in vivo, rat; settings: SNx rats vs vehicle-treated SNx; seven weeks treatment
From the text: as §1
Cardiac myocyte hypertrophy was determined on haematoxylin and eosin (H&E) stained sections, as previously reported. Myocyte cross sectional area was determined on H&E stained sections as adapted from the methods described by Frustaci and colleagues.

[9] = system: patients with type 2 diabetes; settings: recent meta-analysis; cited from earlier work

| Compound | GFR [1] | blood pressure [1] | proteinuria [1] | route of clearance [2] | end diastolic pressure volume relationship (EDPVR) [3] | plasma active GLP-1 levels [4] | HbA1c [4] | cortical tubulointerstitial collagen IV immunostaining [5] | glomerular capillary density (JG-12 immunostaining) [5] | cardiac collagen I protein [6] | cardiac collagen I mRNA [7] | cardiomyocyte size determined in H&E stained sections [8] | albuminuria [9] |
| --- | --- | --- | --- | --- | --- | --- | --- | --- | --- | --- | --- | --- | --- |
| N[C@@H](CC(=O)N1CCn2c(nnc2C(F)(F)F)C1)Cc1cc(F)c(F)cc1F [sitagliptin] | neither linagliptin nor sitagliptin significantly affected | neither linagliptin nor sitagliptin significantly affected | neither linagliptin nor sitagliptin significantly affected | cleared in the urine | significantly lower | similarly increased | unchanged | None of these markers of renal structural injury were affected | None of these markers of renal structural injury were affected | attenuation in the overexpression | attenuation in the overexpression | neither cardiomyocyte size determined in H&E stained sections (FIGS. 2C1 and 2C2) nor α-MHC:β-MHC ratio were changed | – |
| N#C[C@@H]1C[C@@H]2C[C@@H]2N1C(=O)[C@@H](N)C12CC3CC(CC(O)(C3)C1)C2 [saxagliptin] | – | – | – | cleared in the urine | – | – | – | – | – | – | – | – | – |
| Cn1c(=O)cc(N2CCC[C@@H](N)C2)n(Cc2ccccc2C#N)c1=O [alogliptin] | – | – | – | cleared in the urine | – | – | – | – | – | – | – | – | – |
| CC#CCn1c(N2CCC[C@@H](N)C2)nc2c1c(=O)n(Cc1nc(C)c3ccccc3n1)c(=O)n2C [linagliptin, 1-[(4-methyl-quinazolin-2-yl)methyl]-3-methyl-7-(2-butyn-1-yl)-8-(3-(R)-amino-piperidin-1-yl)-xanthine] | neither linagliptin nor sitagliptin significantly affected | neither linagliptin nor sitagliptin significantly affected | neither linagliptin nor sitagliptin significantly affected | secreted via the bile | significantly lower | similarly increased | unchanged | None of these markers of renal structural injury were affected | None of these markers of renal structural injury were affected | attenuation in the overexpression | attenuation in the overexpression | neither cardiomyocyte size determined in H&E stained sections (FIGS. 2C1 and 2C2) nor α-MHC:β-MHC ratio were changed | reduction in albuminuria |
